From patent US12428446B2, “Peptide compound or pharmaceutically acceptable salt thereof” (Eyebio Korea, priority 2019, dated 2025)
Where no end group is shown, it is not given here. [ ]: non-standard residue; d: D form. Pro(cis-4-F) = O=C(O)[C@@H]1C[C@H](F)CN1; Hyp = O=C(O)[C@@H]1C[C@@H](O)CN1

Columns and labels:
[1] = Evaluation of dissolution stability (content change on storage in dissolved state); assay type: physicochemical; conditions: 1 mg/1 ml dissolved state, 40° C. and RH 75%
[2] = test system: IL-1β secretion, Raw 264.7 cells; assay: Anti-inflammatory efficacy: IL-1β ELISA in LPS-stimulated Raw 264.7 macrophages; assay type: cell-based, mouse; conditions: for IL-1β level increased by LPS: 1 h pretreatment, LPS 1 μg/ml 24 h; for anti-inflammatory effect by regulating the secretion of IL-1β: summary, concentration not given
Protocol: (§1) An anti-inflammatory efficacy was evaluated for representative examples of the above examples. Specifically, in order to confirm whether Examples 10, 32, 41, 55, 59 and 91, which are representative examples of 5 amino acid residues, Examples 11 and 30, which are representative examples of 6 amino acid residues, Example 86, which is a representative example of 7 amino acid residues, and Examples 103 and 104, which are representative examples of 8 amino acid residues, have an anti-inflammatory effect, a change in the secretion amount of inflammatory cytokines was confirmed by enzyme-linked immunosorbent assay (ELISA) using Raw 264.7 cells, which are macrophage (monocyte) cell lines.
(§2) Specifically, the Examples were diluted in Raw264.7 cells (Korean Cell Line Bank, 40071) at a concentration of 10 nM, 100 nM, 1 μM, and 10 μM, respectively, and pretreated for 1 hour, and then LPS (Sigma, L6529) at a concentration of 1 μg/ml was added to induce an inflammatory response. After 24 hours of induction, the cell culture supernatant was collected and analyzed. Enzyme-linked immunosorbent assay was performed using Mouse IL-6 Quantikine ELISA Kit (R&D systems, M6000B), TNF-alpha Quantikine ELISA Kit (R&D systems, MTA00B), Mouse IL-1 beta/IL-1F2 Quantikine ELISA Kit (R&D systems, MLB00C) in accordance with the manufacturer's manual.

[3] = test system: IL-6 secretion, Raw 264.7 cells; assay: Anti-inflammatory efficacy: IL-6 ELISA in LPS-stimulated Raw 264.7 macrophages; assay type: cell-based, mouse; conditions: for anti-inflammatory activity by regulating the secretion of IL-6: summary, concentration not given; for IL-6 level increased by LPS: 1 μM peptide, 1 h pretreatment, LPS 1 μg/ml 24 h
Protocol: as §1, §2

| Substance | Day 1 content (%) [1] [%] | Day 3 content (%) [1] [%] | Day 7 content (%) [1] [%] | Initial content (%) [1] [%] | IL-1β level increased by LPS ([2]; 10 nM peptide) | IL-1β level increased by LPS ([2]; 100 nM peptide) | IL-1β level increased by LPS ([2]; 1 μM peptide) | anti-inflammatory effect by regulating the secretion of IL-1β [2] | anti-inflammatory activity by regulating the secretion of IL-6 [3] | IL-1β level increased by LPS ([2]; 10 μM peptide) | IL-6 level increased by LPS [3] |
| --- | --- | --- | --- | --- | --- | --- | --- | --- | --- | --- | --- |
| Hyp-Gly-Gln-Asp-Leu ([Hyp]GQDL) [Example 32] | 96.81 | 93.57 | 90.50 | 98.05 | significantly reduced | significantly reduced | significantly reduced | significant anti-inflammatory effect | significant anti-inflammatory activity |  |  |
| Hyp-Gly-Gln-Glu-Val ([Hyp]GQEV) [Example 91] | 99.10 | 98.74 | 98.68 | 99.08 | reduced | reduced | reduced | significant anti-inflammatory effect | significant anti-inflammatory activity | reduced | significantly reduced |
| cis-4F-Pro-Gly-Gln-Asp-Gly ([Pro(cis-4-F)]GQDG) [Example 41] | 93.20 | 91.07 | 85.34 | 96.95 |  | significantly reduced |  | significant anti-inflammatory effect | significant anti-inflammatory activity |  | significantly reduced |
